Reference: patent publication US9353100B2, “Macrocyclic serine protease inhibitors, pharmaceutical compositions thereof, and their use for treating HCV infections” (Idenix Pharmaceuticals LLC, priority 2011, dated 2016)
Like-named read-outs stand apart in the source and are kept apart here.

Key:
[1] = test system: HCV genotype 1a H77 strain subgenomic luciferase replicon (H1a-luc) in Huh-7 cells; experiment: HCV luciferase replicon assay, genotype 1a (H1a-luc); assay type: cell-based; settings: for FS (1a/1b): EC50 against genotype 1a HCV divided by EC50 against genotype 1b, replicon luciferase assay; for EC50: Hepatitis C virus, read-out: EC50 Against Relpicon 1a
Experimental: (§1) General procedure: The HCV luciferase replicon assay measures the ability of a test compound to inhibit HCV replication in cell culture after 3 days of treatment in a human hepatoma cell line (Huh-7) bearing a HCV replicon containing a luciferase-neomycin phosphotransferase fusion gene. The inhibition of HCV replication was measured by quantification of luciferase protein expression. Briefly, Huh-7 cells containing either the HCV genotype 1a H77 strain or genotype 1b Con1 strain subgenomic luciferase replicon (H1a-luc or Zluc, respectively) were grown in DMEM containing glucose, L-glutamine and sodium pyruvate, 10% fetal bovine serum (FBS), 100 IU/mL penicillin, 100 μg/mL streptomycin, 2 mM GlutaMAX, non-essential amino acids and 0.25 (H1a-luc) or 0.5 (Zluc) mg/mL G418. GlutaMAX was obtained from Invitrogen, Corp.; all other media reagents were obtained from Mediatech, Inc. For dose-response testing, the cells were seeded in 96-well plates at 1×10^4 (H1a-luc) or 7.5×10^3 (Zluc) cells/well in a volume of 50 μL and incubated at 37° C./5% CO2. Three hours after plating, 50 μL of ten 5-fold serial dilutions of compound were added, and cell cultures were incubated at 37° C./5% CO2 for 72 hours. In all cases, Huh-7 cells lacking the HCV replicon served as negative control. To assess luciferase expression, the media/compound was removed from the plates and ONE-glo Luciferase assay reagent (Promega) was added to each well. The assay plates were shaken for 3 minutes at room temperature and luciferase activity for each well was measured with a 1 sec read time on the Victor^3V multilabel counter using a 700 nm cut-off filter (Perkin Elmer). EC50 values were calculated from dose response curves from the resulting best-fit equations determined by Microsoft Excel and XLfit 4.1 software.

[2] = biological target: T1, HCV NS3-NS4A protease 1b (Hepatitis C virus genotype 1b, UniProt Q9WMX2); experiment: HCV protease assay (FRET peptide), genotype 1b; assay type: biochemical
T1 construct: HCV NS3-NS4A protease, which was produced according to the method of Taremi et al; made in house
Experimental: (§2) General procedure: Measurement of the inhibitory effect of compounds on HCV protease activity was performed using the HiLyte Fluor™ TR/QXL™ 610 FRET peptide from AnaSpec, Inc. (San Jose, Calif.) under conditions developed in-house using 2-3 nM HCV NS3-NS4A protease, which was produced according to the method of Taremi et al. (Protein Science, 1998, 7, 2143-2149). The compounds were tested at a variety of concentrations in assay buffer containing a final DMSO concentration of 5%. Reactions were allowed to proceed for 60 min at 30° C. and fluorescence measurements were recorded with a PerkinElmer Victor^3 V 1420 Multilabel Counter. The IC50 values were determined from the percent inhibition versus concentration data using a sigmoidal non-linear regression analysis based on four parameters with XLfit 4.1 software.

[3] = Cytotoxicity evaluation, Cell Titer 96 AQueous One Solution; assay type: cell-based, human; settings: human; Zluc cells, cellular viability
Experimental: For cytotoxicity evaluation, Zluc cells were treated with compounds as described above and cellular viability was monitored using the Cell Titer 96 AQueous One Solution Cell Proliferation Assay (Promega). Plates were then read at 490 nm in a Victor^3V 1420 multilabel counter (Perkin Elmer) and CC50 concentrations were determined using Microsoft Excel and XLfit 4.1 software.

[4] = test system: HCV genotype 1b Con1 strain subgenomic luciferase replicon (Zluc) in Huh-7 cells; experiment: HCV luciferase replicon assay, genotype 1b (Zluc); assay type: cell-based; settings: Hepatitis C virus, read-out: EC50 Against Relpicon 1b
Experimental: as §1

[5] = biological target: T2, HCV NS3-NS4A protease 3a (Hepatitis C virus genotype 3a, UniProt Q81258); experiment: HCV protease assay (FRET peptide), genotype 3a; assay type: biochemical
T2 construct: HCV NS3-NS4A protease, which was produced according to the method of Taremi et al; made in house
Experimental: as §2

[6] = test system: genotype 1b HCV replicon in Zluc cells; experiment: Genotype 1b HCV replicon luciferase assay with 10% FCS or 45% human serum; assay type: cell-based; settings: EC50 in presence of 45% HS divided by EC50 in presence of 10% FCS
Experimental: as §1
In Table 1, the values of FS with 45% HS were determined using the genotype 1b HCV replicon luciferase screening assay using Zluc cells, except that activity in the presence of 10% fetal calf serum (FCS) or 45% human serum (HS) was determined in parallel. The fold shift (FS) with 45% HS is the EC50 value in the presence of 45% HS divided by the EC50 value in the presence of 10% FCS. FS (1a/1b) is the EC50 value against genotype 1a HCV divided by the EC50 value against the genotype 1b in the replicon luciferase screening assay.

[7] = biological target: T3, HCV NS3-NS4A protease 2a (Hepatitis C virus genotype 2a, UniProt Q99IB8); experiment: HCV protease assay (FRET peptide), genotype 2a; assay type: biochemical; settings: genotype 2a protease; 60 min at 30° C.; read-out: IC50 Against HS3/4A 2a
T3 construct: HCV NS3-NS4A protease, which was produced according to the method of Taremi et al; made in house
Experimental: as §2

[8] = biological target: T4, HCV NS3-NS4A protease 4a (Hepatitis C virus genotype 4a, UniProt O39929); experiment: HCV protease assay (FRET peptide), genotype 4a; assay type: biochemical; settings: genotype 4a protease; 60 min at 30° C.; read-out: IC50 Against HS3/4A 4a
T4 construct: HCV NS3-NS4A protease, which was produced according to the method of Taremi et al; made in house
Experimental: as §2

[9] = biological target: T5, HCV NS3-NS4A protease 5a (Hepatitis C virus genotype 5a, UniProt O39928); experiment: HCV protease assay (FRET peptide), genotype 5a; assay type: biochemical; settings: genotype 5a protease; 60 min at 30° C.; read-out: IC50 Against HS3/4A 5a
T5 construct: HCV NS3-NS4A protease, which was produced according to the method of Taremi et al; made in house
Experimental: as §2

[10] = biological target: T6, HCV NS3-NS4A protease 6a (Hepatitis C virus genotype 6a, UniProt O39927); experiment: HCV protease assay (FRET peptide), genotype 6a; assay type: biochemical; settings: genotype 6a protease; 60 min at 30° C.; read-out: IC50 Against HS3/4A 6a
T6 construct: HCV NS3-NS4A protease, which was produced according to the method of Taremi et al; made in house
Experimental: as §2

[11] = biological target: T7, HCV NS3-NS4A protease 1a (Hepatitis C virus genotype 1a, UniProt P27958); experiment: HCV protease assay (FRET peptide), genotype 1a; assay type: biochemical; settings: genotype 1a protease; 60 min at 30° C.; read-out: IC50 Against HS3/4A 1a
T7 construct: HCV NS3-NS4A protease, which was produced according to the method of Taremi et al; made in house
Experimental: as §2

[12] = genotype 1a H77 replicon, Huh-7 (H1a-luc), 72 hours
[13] = genotype 1b Con1 replicon, Huh-7 (Zluc), 72 hours

T1 sequence (Q9WMX2 1658-1711): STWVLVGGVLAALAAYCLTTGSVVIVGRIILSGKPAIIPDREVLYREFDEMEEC
T1 sequence (Q9WMX2 1027-1208): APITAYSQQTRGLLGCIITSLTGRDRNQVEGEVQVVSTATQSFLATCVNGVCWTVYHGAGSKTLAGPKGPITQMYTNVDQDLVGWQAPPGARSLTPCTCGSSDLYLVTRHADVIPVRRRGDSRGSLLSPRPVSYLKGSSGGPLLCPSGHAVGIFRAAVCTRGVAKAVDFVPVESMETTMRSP
T2 sequence (Q81258 1664-1717): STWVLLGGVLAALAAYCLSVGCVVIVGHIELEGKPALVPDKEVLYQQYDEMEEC
T2 sequence (Q81258 1033-1214): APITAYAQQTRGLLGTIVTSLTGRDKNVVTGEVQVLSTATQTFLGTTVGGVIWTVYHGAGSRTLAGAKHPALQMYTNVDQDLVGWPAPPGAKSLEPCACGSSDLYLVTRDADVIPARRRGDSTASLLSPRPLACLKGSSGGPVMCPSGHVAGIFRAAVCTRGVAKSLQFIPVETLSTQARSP
T4 sequence (O39929 1658-1711): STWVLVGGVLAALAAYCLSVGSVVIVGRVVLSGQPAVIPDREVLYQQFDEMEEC
T4 sequence (O39929 1027-1208): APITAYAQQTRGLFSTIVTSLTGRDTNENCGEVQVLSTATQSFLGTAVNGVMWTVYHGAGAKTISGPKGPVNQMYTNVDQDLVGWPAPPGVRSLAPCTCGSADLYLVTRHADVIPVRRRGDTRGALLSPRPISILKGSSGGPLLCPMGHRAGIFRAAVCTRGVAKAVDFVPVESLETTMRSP
T5 sequence (O39928 1659-1712): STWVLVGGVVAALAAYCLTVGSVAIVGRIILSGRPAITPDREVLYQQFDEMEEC
T5 sequence (O39928 1028-1209): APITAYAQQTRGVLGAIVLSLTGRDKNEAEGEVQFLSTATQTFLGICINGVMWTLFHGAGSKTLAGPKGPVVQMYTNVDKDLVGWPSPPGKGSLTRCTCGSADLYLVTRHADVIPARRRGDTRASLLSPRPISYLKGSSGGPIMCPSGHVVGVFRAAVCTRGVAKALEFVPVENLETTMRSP
T3 sequence (Q99IB8 1662-1715): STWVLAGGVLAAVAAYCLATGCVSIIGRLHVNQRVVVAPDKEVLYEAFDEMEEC
T3 sequence (Q99IB8 1031-1212): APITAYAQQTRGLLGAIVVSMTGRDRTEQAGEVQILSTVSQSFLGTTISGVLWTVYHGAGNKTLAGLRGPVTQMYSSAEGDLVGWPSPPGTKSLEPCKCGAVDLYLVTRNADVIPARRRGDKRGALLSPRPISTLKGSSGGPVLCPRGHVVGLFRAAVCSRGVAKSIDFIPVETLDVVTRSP
T6 sequence (O39927 1031-1212): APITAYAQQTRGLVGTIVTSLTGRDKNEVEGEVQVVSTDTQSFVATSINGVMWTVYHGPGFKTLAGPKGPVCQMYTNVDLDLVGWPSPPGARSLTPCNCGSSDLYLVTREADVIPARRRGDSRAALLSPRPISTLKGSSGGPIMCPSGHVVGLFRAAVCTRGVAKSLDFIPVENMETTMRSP
T6 sequence (O39927 1662-1715): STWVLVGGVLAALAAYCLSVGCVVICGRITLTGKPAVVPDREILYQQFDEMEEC
T7 sequence (P27958 1027-1208): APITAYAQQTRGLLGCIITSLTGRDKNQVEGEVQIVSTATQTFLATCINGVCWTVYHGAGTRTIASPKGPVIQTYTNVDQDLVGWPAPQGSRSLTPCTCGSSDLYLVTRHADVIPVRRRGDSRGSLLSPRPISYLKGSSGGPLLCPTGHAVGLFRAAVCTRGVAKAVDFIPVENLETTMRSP
T7 sequence (P27958 1658-1711): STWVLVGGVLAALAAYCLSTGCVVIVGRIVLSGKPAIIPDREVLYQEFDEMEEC

SMILES | FS (1a/1b) [1] | EC50 ([1]; Huh-7, 72 h) | IC50 ([2]; read-out: IC50 Against HS3/4A 1b, genotype 1b protease, 60 min at 30° C.) | CC50 [3] | EC50 ([4]; Huh-7, 72 h) | IC50 [5] | FS with 45% HS [6] | EC50 [1, 12] | IC50 [7] | IC50 [8] | IC50 [2] | EC50 [4, 13] | IC50 [9] | IC50 [10] | IC50 [11]
CN1CCCC/C=C\[C@@H]2C[C@@]2(C(=O)NS(=O)(=O)C2(C)CC2)NC(=O)[C@@H]2C[C@@H](Oc3nc(-c4ccc(Cl)cc4)sc3-c3ccccc3)CC[C@H]2C1=O [Compound D104] | 188 | > 10000 nM | 10 to 100 nM | > 10000 nM | 10 to 100 nM | – | – | – | – | – | – | – | – | – | –
Cc1csc(-c2cc(O[C@H]3CC[C@H]4C(=O)N(C)CCCC/C=C\[C@@H]5C[C@@]5(C(=O)NS(=O)(=O)C5(C)CC5)NC(=O)[C@@H]4C3)nc(-c3nc(C(F)(F)F)cs3)n2)n1 [Compound C101, (1R,4R,6R,15R,18S)-1-methyl-cyclopropanesulfonic acid {13-methyl-18-[6-(4-methyl-thiazol-2-yl)-2-(4-trifluoromethyl-thiazol-2-yl)-pyrimidin-4-yloxy]-2,14-dioxo-3,13-diaza-tricyclo[13.4.0.0]nonadec-7-ene-4-carbonyl}-amide] | 7 | – | – | > 10000 nM | – | < 10 nM | 16 | < 10 nM | < 10 nM | < 10 nM | < 10 nM | < 10 nM | < 10 nM | < 10 nM | < 10 nM
COc1ccc2c(O[C@H]3CC[C@H]4C(=O)N(C)CCCC/C=C\[C@@H]5C[C@@]5(C(=O)NS(=O)(=O)C5(C)CC5)NC(=O)[C@@H]4C3)cc(-c3nc(C(C)C)cs3)nc2c1C [Compound A101, (1R,4R,6R,15R,18S)-1-methyl-cyclopropanesulfonic acid {18-[2-(4-isopropyl-thiazol-2-yl)-7-methoxy-8-methyl-quinolin-4-yloxy]-13-methyl-2,14-dioxo-3,13-diaza-tricyclo[13.4.0.0]nonadec-7-ene-4-carbonyl}-amide] | 6 | – | – | > 10000 nM | – | 100 to 1000 nM | >40 | 10 to 100 nM | 10 to 100 nM | < 10 nM | < 10 nM | < 10 nM | 10 to 100 nM | < 10 nM | < 10 nM
CC(C)c1csc(-c2cc(O[C@H]3CC[C@H]4C(=O)N(C)CCCC/C=C\[C@@H]5C[C@@]5(C(=O)NS(=O)(=O)C5(C)CC5)NC(=O)[C@@H]4C3)nc(-c3nc(C(F)(F)F)cs3)n2)n1 [Compound C103, (1R,4R,6R,15R,18S)-1-methyl-cyclopropanesulfonic acid {18-[6-(4-isopropyl-thiazol-2-yl)-2-(4-trifluoromethyl-thiazol-2-yl)-pyrimidin-4-yloxy]-13-methyl-2,14-dioxo-3,13-diaza-tricyclo[13.4.0.0]nonadec-7-ene-4-carbonyl}-amide] | 6 | – | – | > 10000 nM | – | < 10 nM | – | < 10 nM | – | – | < 10 nM | < 10 nM | – | – | –
CN1CCCC/C=C\[C@@H]2C[C@@]2(C(=O)NS(=O)(=O)C2(C)CC2)NC(=O)[C@@H]2C[C@@H](Oc3nc(-c4cccc(C(F)(F)F)c4)sc3-c3ccccc3)CC[C@H]2C1=O [Compound D101, (1R,4R,6R,15R,18S)-1-methyl-cyclopropanesulfonic acid {13-methyl-2,14-dioxo-18-[5-phenyl-2-(3-trifluoromethyl-phenyl)-thiazol-4-yloxy]-3,13-diaza-tricyclo[13.4.0.0]nonadec-7-ene-4-carbonyl}-amide] | 147 | – | – | > 10000 nM | – | 10 to 100 nM | – | 1000 to 10000 nM | – | – | 10 to 100 nM | 10 to 100 nM | – | – | –
CN1CCCC/C=C\[C@@H]2C[C@@]2(C(=O)NS(=O)(=O)C2(C)CC2)NC(=O)[C@@H]2C[C@@H](Oc3cc(-c4nc(C(F)(F)F)cs4)nc(-c4nc(C(F)(F)F)cs4)n3)CC[C@H]2C1=O [Compound C104, (1R,4R,6R,15R,18S)-1-methyl-cyclopropanesulfonic acid {18-[2,6-bis(4-trifluoromethyl-thiazol-2-yl)-pyrimidin-4-yloxy]-13-methyl-2,14-dioxo-3,13-diaza-tricyclo[13.4.0.0]nonadec-7-ene-4-carbonyl}-amide] | 5 | – | – | > 10000 nM | – | 10 to 100 nM | – | < 10 nM | – | – | < 10 nM | < 10 nM | – | – | –
Cc1csc(-c2cc(O[C@H]3CC[C@H]4C(=O)N(C)CCCC/C=C\[C@@H]5C[C@@]5(C(=O)NS(=O)(=O)C5(C)CC5)NC(=O)[C@@H]4C3)cc(-c3nc(C(F)(F)F)cs3)n2)n1 [Compound C102, (1R,4R,6R,15R,18S)-1-methyl-cyclopropanesulfonic acid {13-methyl-18-[2-(4-methyl-thiazol-2-yl)-6-(4-trifluoromethyl-thiazol-2-yl)-pyridin-4-yloxy]-2,14-dioxo-3,13-diaza-tricyclo[13.4.0.0]nonadec-7-ene-4-carbonyl}-amide] | 5 | – | – | > 10000 nM | – | < 10 nM | – | < 10 nM | – | – | < 10 nM | < 10 nM | – | – | –
